Results as given in ChEMBL document CHEMBL1255349, “Comparison of the efficacies of oral beta-lactams in selection of Haemophilus influenzae transformants with mutated ftsI genes” (2008).
Converted amounts (≈) assume the structure as drawn.

Tests used:
Format in all cases: functional
Haemophilus influenzae [1] = test: Antimicrobial activity against beta lactamase-nonproducing ampicillin-resistant Haemophilus influenzae MSC06663 isolate harboring Met377Ile, Ser385Thr and Asn526Lys mutations in penicillin-binding protein 3 by broth dilution method
Haemophilus influenzae [2] = test: Antimicrobial activity against beta lactamase-nonproducing ampicillin-resistant Haemophilus influenzae MSC06647 isolate harboring Asn526Lys mutation in penicillin-binding protein 3 by broth dilution method
Haemophilus influenzae [3] = test: Antimicrobial activity against rifampin-resistant Haemophilus influenzae Rd clone by broth dilution method

| Structure (SMILES) | MIC (Haemophilus influenzae [1]) | MIC (Haemophilus influenzae [2]) | MIC (Haemophilus influenzae [3]) |
| --- | --- | --- | --- |
| CC1(C)S[C@@H]2[C@H](NC(=O)[C@H](N)c3ccc(O)cc3)C(=O)N2[C@H]1C(=O)O [AMOXICILLIN] | 1 µg/mL (≈ 2.74 µM) | 4 µg/mL (≈ 10.9 µM) | 0.5 µg/mL (≈ 1.37 µM) |
| CC1(C)S[C@@H]2[C@H](NC(=O)[C@H](N)c3ccccc3)C(=O)N2[C@H]1C(=O)O [AMPICILLIN] | 1 µg/mL (≈ 2.86 µM) | 2 µg/mL (≈ 5.72 µM) | 0.25 µg/mL (≈ 0.715 µM) |
| CC/C=C(\C(=O)N[C@@H]1C(=O)N2C(C(=O)O)=C(COC(N)=O)CS[C@H]12)c1csc(N)n1 [CEFCAPENE] | 2 µg/mL (≈ 4.41 µM) | 0.25 µg/mL (≈ 0.551 µM) | 0.008 µg/mL (≈ 0.0176 µM) |
| C=CC1=C(C(=O)O)N2C(=O)[C@@H](NC(=O)/C(=N\O)c3csc(N)n3)[C@H]2SC1 [CEFDINIR] | 2 µg/mL (≈ 5.06 µM) | 1 µg/mL (≈ 2.53 µM) | 0.25 µg/mL (≈ 0.632 µM) |
| CO/N=C(\C(=O)N[C@@H]1C(=O)N2C(C(=O)OCOC(=O)C(C)(C)C)=C(/C=C\c3scnc3C)CS[C@H]12)c1csc(N)n1 [CEFDITOREN PIVOXIL] | 0.5 µg/mL (≈ 0.805 µM) | 0.06 µg/mL (≈ 0.0967 µM) | 0.008 µg/mL (≈ 0.0129 µM) |
| COCC1=C(C(=O)O)N2C(=O)[C@@H](NC(=O)/C(=N\OC)c3csc(N)n3)[C@H]2SC1 [CEFPODOXIME] | 8 µg/mL (≈ 18.7 µM) | 1 µg/mL (≈ 2.34 µM) | 0.03 µg/mL (≈ 0.0702 µM) |
| CC=CC1=C(C(=O)O)N2C(=O)[C@@H](NC(=O)[C@H](N)c3ccc(O)cc3)[C@H]2SC1 [CEFPROZIL] | 4 µg/mL (≈ 10.3 µM) | 4 µg/mL (≈ 10.3 µM) | 2 µg/mL (≈ 5.14 µM) |
| CO/N=C(\C(=O)N[C@@H]1C(=O)N2C(C(=O)O)=C(COC(N)=O)CS[C@H]12)c1ccco1 [CEFUROXIME] | 2 µg/mL (≈ 4.71 µM) | 2 µg/mL (≈ 4.71 µM) | 0.5 µg/mL (≈ 1.18 µM) |
| C[C@@H](O)[C@H]1C(=O)N2C(C(=O)O)=C(SC3CN(C4=NCCS4)C3)[C@H](C)[C@H]12 [TEBIPENEM] | 0.25 µg/mL (≈ 0.652 µM) | 1 µg/mL (≈ 2.61 µM) | 0.06 µg/mL (≈ 0.156 µM) |
